Experimental data taken from publication PMC6199744, “Development of Chemical Proteomics for the Folateome and Analysis of the Kinetoplastid Folateome” (ACS Infectious Diseases, 2018).
Read-outs that look alike come from different tables or passages of the source.

Legend:
Format in all cases: binding
[1] = molecular target: T1, HeLa cell extract proteins (Homo sapiens, UniProt Q969X5)
T1 construct: endogenous in cells; host or cells: HeLa cell extract
T1 sequence (Q969X5 1-290): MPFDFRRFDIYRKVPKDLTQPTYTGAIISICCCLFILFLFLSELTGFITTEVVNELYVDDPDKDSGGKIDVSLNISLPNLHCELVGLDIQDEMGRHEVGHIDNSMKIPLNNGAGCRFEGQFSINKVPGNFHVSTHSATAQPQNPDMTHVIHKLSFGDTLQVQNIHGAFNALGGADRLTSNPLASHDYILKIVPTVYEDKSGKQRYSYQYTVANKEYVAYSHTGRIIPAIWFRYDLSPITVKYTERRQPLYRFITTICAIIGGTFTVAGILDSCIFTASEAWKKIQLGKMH

[2] = molecular target: T2, HeLa cell extract proteins (Homo sapiens, UniProt Q92947)
T2 construct: endogenous in cells; host or cells: HeLa cell extract
T2 sequence (Q92947 45-438): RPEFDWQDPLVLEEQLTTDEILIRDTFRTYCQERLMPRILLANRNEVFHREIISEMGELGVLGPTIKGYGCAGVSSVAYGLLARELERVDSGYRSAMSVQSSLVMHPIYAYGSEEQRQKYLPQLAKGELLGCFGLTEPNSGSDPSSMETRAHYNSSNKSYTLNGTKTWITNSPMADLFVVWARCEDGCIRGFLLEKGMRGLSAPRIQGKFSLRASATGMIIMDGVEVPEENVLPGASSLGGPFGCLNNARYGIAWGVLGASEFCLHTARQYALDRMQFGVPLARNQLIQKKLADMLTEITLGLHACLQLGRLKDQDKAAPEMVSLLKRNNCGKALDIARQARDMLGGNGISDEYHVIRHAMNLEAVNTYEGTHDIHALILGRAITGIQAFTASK

[3] = molecular target: T3, HeLa cell extract proteins (Homo sapiens, UniProt Q14978)
T3 construct: endogenous in cells; host or cells: HeLa cell extract
T3 sequence (Q14978 1-699): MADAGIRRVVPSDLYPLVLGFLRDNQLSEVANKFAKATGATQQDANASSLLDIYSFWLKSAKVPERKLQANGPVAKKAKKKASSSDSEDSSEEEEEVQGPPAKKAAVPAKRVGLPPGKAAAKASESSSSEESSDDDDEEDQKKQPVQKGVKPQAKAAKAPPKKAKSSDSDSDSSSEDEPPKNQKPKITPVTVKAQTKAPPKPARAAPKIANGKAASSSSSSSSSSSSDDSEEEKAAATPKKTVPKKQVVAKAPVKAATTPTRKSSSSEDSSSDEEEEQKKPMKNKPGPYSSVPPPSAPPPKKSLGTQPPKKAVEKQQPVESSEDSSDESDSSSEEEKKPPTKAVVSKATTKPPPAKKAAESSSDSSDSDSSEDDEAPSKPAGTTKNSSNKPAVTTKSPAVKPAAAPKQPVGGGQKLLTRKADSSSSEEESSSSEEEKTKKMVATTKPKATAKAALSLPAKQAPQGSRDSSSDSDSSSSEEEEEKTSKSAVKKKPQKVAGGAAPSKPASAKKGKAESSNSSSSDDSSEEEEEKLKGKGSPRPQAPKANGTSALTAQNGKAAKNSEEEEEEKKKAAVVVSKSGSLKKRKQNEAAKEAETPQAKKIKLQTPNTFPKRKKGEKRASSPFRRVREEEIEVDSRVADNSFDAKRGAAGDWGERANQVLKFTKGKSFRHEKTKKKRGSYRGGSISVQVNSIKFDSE

[4] = molecular target: T4, HeLa cell extract proteins (Homo sapiens, UniProt Q53R41)
T4 construct: endogenous in cells; host or cells: HeLa cell extract
T4 sequence (Q53R41 1-847): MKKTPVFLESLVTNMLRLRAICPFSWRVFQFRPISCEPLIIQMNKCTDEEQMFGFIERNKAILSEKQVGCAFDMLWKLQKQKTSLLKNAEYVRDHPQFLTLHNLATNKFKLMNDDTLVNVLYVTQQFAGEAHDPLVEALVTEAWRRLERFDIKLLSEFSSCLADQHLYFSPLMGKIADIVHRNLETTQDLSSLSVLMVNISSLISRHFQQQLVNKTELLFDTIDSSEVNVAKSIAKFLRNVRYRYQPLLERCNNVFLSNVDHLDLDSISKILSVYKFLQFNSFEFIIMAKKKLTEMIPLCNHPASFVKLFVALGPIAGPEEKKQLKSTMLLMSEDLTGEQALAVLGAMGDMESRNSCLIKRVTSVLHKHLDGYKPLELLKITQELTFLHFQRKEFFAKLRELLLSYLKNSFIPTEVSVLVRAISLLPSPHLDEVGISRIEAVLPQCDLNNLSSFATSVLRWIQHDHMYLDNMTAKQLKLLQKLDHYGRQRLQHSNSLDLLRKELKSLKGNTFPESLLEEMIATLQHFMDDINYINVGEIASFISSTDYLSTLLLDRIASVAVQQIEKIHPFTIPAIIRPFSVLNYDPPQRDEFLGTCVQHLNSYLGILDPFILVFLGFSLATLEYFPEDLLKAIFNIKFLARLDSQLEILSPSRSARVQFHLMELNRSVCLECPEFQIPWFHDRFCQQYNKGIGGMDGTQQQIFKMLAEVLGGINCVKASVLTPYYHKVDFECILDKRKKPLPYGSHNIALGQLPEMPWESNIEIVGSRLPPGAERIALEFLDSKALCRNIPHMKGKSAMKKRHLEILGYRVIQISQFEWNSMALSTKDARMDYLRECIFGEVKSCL

[5] = molecular target: T5, HeLa cell extract proteins (Homo sapiens, UniProt P06576)
T5 construct: endogenous in cells; host or cells: HeLa cell extract
T5 sequence (P06576 48-529): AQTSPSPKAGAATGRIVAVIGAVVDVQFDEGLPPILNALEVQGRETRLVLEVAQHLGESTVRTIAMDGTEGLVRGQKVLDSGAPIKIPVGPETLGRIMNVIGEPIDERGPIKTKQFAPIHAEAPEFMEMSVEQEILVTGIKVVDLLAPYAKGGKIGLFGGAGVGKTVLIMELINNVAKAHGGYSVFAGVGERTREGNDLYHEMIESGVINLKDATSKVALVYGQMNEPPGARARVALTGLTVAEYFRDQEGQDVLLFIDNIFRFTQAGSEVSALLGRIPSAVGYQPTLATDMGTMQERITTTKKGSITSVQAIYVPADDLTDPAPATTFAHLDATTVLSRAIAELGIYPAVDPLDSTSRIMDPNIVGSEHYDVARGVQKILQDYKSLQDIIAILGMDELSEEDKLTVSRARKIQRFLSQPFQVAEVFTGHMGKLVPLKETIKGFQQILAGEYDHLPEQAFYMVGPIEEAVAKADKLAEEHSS

Row | Compound | fold changes relative to vehicle control ([1]; captured protein ERGIC1, HeLa) | fold changes relative to vehicle control ([2]; captured protein GCDH, HeLa) | fold changes relative to vehicle control ([3]; protein NOLC1, HeLa) | fold changes relative to vehicle control ([4]; captured protein FASTKD1, HeLa) | fold changes relative to vehicle control ([5]; protein ATP5B, HeLa) | fold changes relative to vehicle control [1] | fold changes relative to vehicle control [2] | fold changes relative to vehicle control [3] | fold changes relative to vehicle control [4] | fold changes relative to vehicle control [5] | fold changes relative to vehicle control ([1]; protein ERGIC1, HeLa) | fold changes relative to vehicle control ([2]; HeLa, captured protein GCDH) | fold changes relative to vehicle control ([4]; HeLa, protein FASTKD1) | fold changes relative to vehicle control ([5]; HeLa, captured protein ATP5B)
1 | Nc1nc2cccc(-c3ccccc3)c2n1Cc1ccc(Cl)c(Cl)c1 [compound 3] | 1.1 | 0.98 | 0.96 | 0.98 | 0.96 | – | – | – | – | – | – | – | – | –
2 | Nc1nc2[nH]cc(CCc3ccc(C(=O)N[C@@H](CCC(=O)O)C(=O)O)cc3)c2c(=O)[nH]1 [PTX, pemetrexed] | – | – | – | – | – | 0.85 | 0.75 | 0.87 | 0.83 | 1.07 | – | – | – | –
3 | Nc1nc2c(c(=O)[nH]1)N(C=O)C(CNc1ccc(C(=O)N[C@@H](CCC(=O)O)C(=O)O)cc1)CN2 (some centres unmarked) [LEU, leucovorin] | – | – | 0.93 | – | – | – | – | – | – | – | 0.77 | 0.96 | 0.85 | 1.09
4 | CCCCCCOc1cccc(Cc2cnc(N)nc2N)c1 [compound 2] | 1.02 | 0.95 | 1.44 | 1.08 | 0.83 | – | – | – | – | – | – | – | – | –
5 | NCCOCCOCC(=O)Nc1nc2ncc(CNc3ccc(C(=O)NC(CCC(=O)O)C(=O)O)cc3)nc2c(=O)[nH]1 (centres unmarked) [compound 6] | – | – | 0.96 | – | – | – | – | – | – | – | 0.86 | 0.62 | 0.87 | 0.96
6 | CCCCCCOc1ccc(Cc2cnc(N)nc2N)cc1 [compound 1] | 0.94 | 0.91 | 0.9 | 0.96 | 1.02 | – | – | – | – | – | – | – | – | –
7 | NCCCNc1ccc(C(=O)NC(CCC(=O)O)C(=O)O)cc1 (centres unmarked) [compound 7] | – | – | 0.9 | – | – | – | – | – | – | – | 1.31 | 0.98 | 0.84 | 1.04
